The target of the test is Aminopeptidase N (Oryctolagus cuniculus) (UniProt P15541). The experiment in a line: Inhibitory activity against rabbit kidney aminopeptidase using 10 nM of [3H]Leu-enkephalin as substrate.

SMILES strings stand for the structures.

Sequence of Aminopeptidase N (Oryctolagus cuniculus) (P15541 whole entry, looked up): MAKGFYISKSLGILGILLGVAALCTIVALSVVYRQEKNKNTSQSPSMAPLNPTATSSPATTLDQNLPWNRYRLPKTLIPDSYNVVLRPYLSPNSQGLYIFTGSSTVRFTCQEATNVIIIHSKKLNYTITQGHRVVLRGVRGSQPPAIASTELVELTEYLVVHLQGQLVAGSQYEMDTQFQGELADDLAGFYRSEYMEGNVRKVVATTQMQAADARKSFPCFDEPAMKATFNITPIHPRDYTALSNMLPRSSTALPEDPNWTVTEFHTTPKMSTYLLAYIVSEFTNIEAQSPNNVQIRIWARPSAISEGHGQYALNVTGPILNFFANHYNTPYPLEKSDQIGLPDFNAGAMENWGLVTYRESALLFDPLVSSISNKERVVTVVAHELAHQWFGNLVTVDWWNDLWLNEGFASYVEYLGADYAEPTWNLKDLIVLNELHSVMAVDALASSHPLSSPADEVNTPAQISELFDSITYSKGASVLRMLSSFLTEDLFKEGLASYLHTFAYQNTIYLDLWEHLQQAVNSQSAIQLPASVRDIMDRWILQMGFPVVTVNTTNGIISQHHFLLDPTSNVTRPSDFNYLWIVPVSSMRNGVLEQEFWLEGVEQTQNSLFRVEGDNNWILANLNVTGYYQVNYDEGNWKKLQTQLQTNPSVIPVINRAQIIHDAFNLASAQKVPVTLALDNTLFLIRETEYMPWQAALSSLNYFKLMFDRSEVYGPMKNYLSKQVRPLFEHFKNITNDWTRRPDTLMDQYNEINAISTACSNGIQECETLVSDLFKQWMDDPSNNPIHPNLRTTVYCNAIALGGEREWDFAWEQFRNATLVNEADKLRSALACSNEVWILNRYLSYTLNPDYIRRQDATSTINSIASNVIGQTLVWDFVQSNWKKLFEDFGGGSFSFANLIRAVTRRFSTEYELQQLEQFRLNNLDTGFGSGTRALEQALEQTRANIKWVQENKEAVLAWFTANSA

On to `O=CN(O)C(Cc1ccccc1)C(=O)NCC(=O)O` (centres undefined) [[2-(Formyl-hydroxy-amino)-3-phenyl-propionylamino]-acetic acid], for which the IC50 – broadly, the midpoint of a concentration-inhibition curve – came to 25 µM. That is a double-digit micromolar value. Then `O=C(O)CNC(=O)C(Cc1ccccc1)C(=O)NO` (racemic), with 100 µM. Compound `C[C@H](NC(=O)[C@@H](CC(=O)NO)Cc1ccccc1)C(=O)O` (racemic) [(RS)-2-(2-Benzyl-3-hydroxycarbamoyl-propionylamino)-propionic acid] gave an IC50 of 0.71 µM.

Turning to `O=CN(O)CC(Cc1ccccc1)C(=O)NCC(=O)O` (centres undefined) [[2-Benzyl-3-(formyl-hydroxy-amino)-propionylamino]-acetic acid], the IC50 is 0.85 µM.

Source of the values: BindingDB's records for doi:10.1021/jm00147a007 (1985).
